Like-named read-outs stand apart in the source and are kept apart here.
Key:
EG7 tumors = assay: Tumor-directed immune response: flow cytometry of excised EG7 tumors; format: in vivo, mouse; details: 50 mg/kg orally BID from day one, tumors excised day 14
Description: EG7 cells were implanted subcutaneously into C57BL/6 mice. Compound 9 (50 mg/kg) or vehicle was orally administered BID starting day one post implant (N=10 per group). Tumors were excised on day 14 and analyzed by flow cytometry. Compound 9 increased the % CD8+ cells of CD45+ cells as shown in FIG. 1A (* indicates p<0.05). EG7 cells were implanted subcutaneously into C57BL/6 mice. Anti-CD8 antibody was dosed i.p. on days −1, 0, 5, and 10. Compound 9 (50 mg/kg) or vehicle was orally dosed BID starting on day 1.

EG7 cells = assay: Viability of EG7 cells, CellTiter-Glo; format: cell-based, mouse; details: 100 μM, 3 days
Description: (§1) Viability of EG7 and A375 cells treated with 100 μM Compound 9 was measured using CellTiter-Glo after 3 days. Proliferation of human CD8+ T cells was measured by flow cytometry after 4 days of treatment with 100 μM Compound 9 using CellTrace CFSE Cell Proliferation Kit.

A375 cells = assay: Viability of A375 cells, CellTiter-Glo; format: cell-based, human; details: 100 μM, 3 days
Description: as §1

Human CD8+ T cells = assay: Reversal of AMP-mediated suppression of CD8+ T cells; format: cell-based; details: T-cell, 96 h, 4 days
Description: Human CD8+ T cells were labeled with CellTrace CFSE and then pre-incubated with an adenosine deaminase inhibitor and Compound 9 or vehicle for 20 minutes. 20 μM AMP was added for assessing T cell proliferation and CD25 expression. 10 μM AMP was added for assessing cytokine production. T cells were activated with α-CD3, α-CD28, and hIL2. After 4 days, proliferation and CD25 expression were assessed by flow cytometry and cytokine levels in the supernatant were measured by ELISA. EC50s were determined using a four-parameter dose-response curve equation.

[1] = target: CD73 activity in cancer patient serum (Homo sapiens (Human), UniProt P21589); assay: CD73 activity in cancer patient serum, LC/MS conversion of 15N5-AMP to 15N5-ADO; format: biochemical; details: TNAP inhibitor present
Chain of CD73 activity in cancer patient serum (P21589 27-574): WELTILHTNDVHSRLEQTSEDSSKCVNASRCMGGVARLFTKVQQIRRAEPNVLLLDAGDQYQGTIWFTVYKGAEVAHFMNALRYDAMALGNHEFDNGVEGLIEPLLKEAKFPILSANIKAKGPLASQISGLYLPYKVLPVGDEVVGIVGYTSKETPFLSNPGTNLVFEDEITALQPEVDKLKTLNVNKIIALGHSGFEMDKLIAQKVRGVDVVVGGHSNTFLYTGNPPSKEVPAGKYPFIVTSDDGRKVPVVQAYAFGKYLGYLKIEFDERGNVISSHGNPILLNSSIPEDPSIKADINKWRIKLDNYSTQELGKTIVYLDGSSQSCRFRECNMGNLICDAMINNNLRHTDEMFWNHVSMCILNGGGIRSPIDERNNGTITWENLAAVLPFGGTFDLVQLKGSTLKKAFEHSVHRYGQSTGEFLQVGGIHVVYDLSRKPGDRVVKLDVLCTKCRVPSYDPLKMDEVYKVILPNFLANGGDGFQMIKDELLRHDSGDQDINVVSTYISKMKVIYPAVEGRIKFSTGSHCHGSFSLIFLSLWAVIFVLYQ
Description: Serum was procured from Discovery Life Sciences. Serum from head and neck squamous cell carcinoma (HNSCC), ovarian cancer, triple-negative breast cancer and esophageal cancer patients were incubated with a serial dilution of Compound 9 in the presence of a TNAP inhibitor. Conversion of ^15N5-AMP to ^15N5-ADO was measured by LC/MS. FIG. 10A depicts the sub-nanomolar inhibition of HNSCC serum. FIG. 10B depicts the sub-nanomolar inhibition of ovarian cancer serum. FIG. 10C depicts the sub-nanomolar inhibition of TNBC serum. FIG. 10D depicts the sub-nanomolar inhibition of esophageal cancer serum.

[2] = target: CD73-expressing SK-MEL-28 cells (Homo sapiens (Human), UniProt P21589); assay: Human CD73 cell surface assay, CD73-expressing SK-MEL-28 cells, malachite green; format: cell-based
Chain of CD73-expressing SK-MEL-28 cells (P21589 27-574): as above
Description: (§2) The potency of Compound 9 was evaluated against recombinant CD73 and CD73-expressing SK-MEL-28 cells using a malachite green assay. Inhibition of CD73 in plasma was measured using LC/MS to assess conversion of ^15N5-AMP into ^15N5-ADO. FIG. 4A indicates the nanomolar inhibition of CD73 cells from both human and mouse sources. […] Inhibition of CD73 in plasma was measured using LC/MS to assess conversion of ^15N5-AMP into ^15N5-ADO.

mouse plasma CD73 = mouse plasma CD73 (Mus musculus (Mouse), UniProt Q61503); assay: Inhibition of CD73 in mouse plasma (IC50); format: biochemical
Chain of mouse plasma CD73 (Q61503 29-576): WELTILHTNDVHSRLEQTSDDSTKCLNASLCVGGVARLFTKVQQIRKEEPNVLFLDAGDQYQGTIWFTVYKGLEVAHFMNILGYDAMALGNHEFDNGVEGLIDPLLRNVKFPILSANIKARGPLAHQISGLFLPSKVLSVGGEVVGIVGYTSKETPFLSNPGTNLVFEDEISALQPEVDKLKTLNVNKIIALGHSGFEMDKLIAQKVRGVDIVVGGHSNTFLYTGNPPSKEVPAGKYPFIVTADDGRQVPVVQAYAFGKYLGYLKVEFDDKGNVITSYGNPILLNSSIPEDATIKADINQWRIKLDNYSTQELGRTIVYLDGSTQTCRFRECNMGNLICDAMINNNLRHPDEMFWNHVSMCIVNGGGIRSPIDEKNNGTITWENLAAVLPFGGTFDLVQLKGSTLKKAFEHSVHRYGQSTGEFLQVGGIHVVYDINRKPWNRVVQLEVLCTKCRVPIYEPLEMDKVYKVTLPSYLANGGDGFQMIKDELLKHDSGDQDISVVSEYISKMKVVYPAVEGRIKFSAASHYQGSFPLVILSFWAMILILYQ
Description: as §2
Single dose Compound 9 (50 mg/kg) was administered orally to mice and plasma was collected at indicated time points. Compound 9 levels were measured by LC/MS. Plasma was harvested from mice 2 hours post dose and spiked with ^15N5-AMP and a TNAP inhibitor. ^15N5-ADO levels were measured by LC/MS.

C#C[C@@]1(O)[C@@H](COC(Cc2ccc(N3CCCNC3=O)cc2)(C(=O)O)C(=O)O)O[C@@H](n2cnc3c(N)nc(Cl)nc32)[C@@H]1O [Compound 9, 2-(((2R,3S,4R,5R)-5-(6-amino-2-chloro-9H-purin-9-yl)-3-ethynyl-3,4-dihydroxytetrahydrofuran-2-yl)methoxy)-2-(4-(2-oxotetrahydropyrimidin-1 (2H)-yl)benzyl)malonic acid]
% CD8+ cells of CD45+ cells (EG7 tumors): increased | % cell survival of EG7 cells (EG7 cells): comparable % cell survival | % cell survival of A375 cells (A375 cells): comparable % cell survival | EC50 (Human CD8+ T cells; 10 μM AMP, ELISA, read-out: EC50 for Granzyme B production): 5.6 nM | EC50 (Human CD8+ T cells; 10 μM AMP, ELISA, read-out: EC50 for IFNγ production): 4.5 nM | EC50 (Human CD8+ T cells; 20 μM AMP, flow cytometry, read-out: EC50 for CD8+ T cell activation (CD25 expression)): 9.6 nM | EC50 (Human CD8+ T cells; 20 μM AMP, flow cytometry, read-out: EC50 for CD8+ T cell proliferation): 11.6 nM | inhibition of CD73 activity in esophageal cancer serum ([1]; esophageal cancer serum): sub-nanomolar | inhibition of CD73 activity in HNSCC serum ([1]; head and neck squamous cell carcinoma serum): sub-nanomolar | inhibition of CD73 activity in ovarian cancer serum ([1]; ovarian cancer serum): sub-nanomolar | inhibition of CD73 activity in TNBC serum ([1]; triple-negative breast cancer serum): sub-nanomolar | IC50 [2]: 0.21 nM | IC50 (mouse plasma CD73): 1 nM

From patent US11078228B2, “Ectonucleotidase inhibitors and methods of use thereof” (Calithera Biosciences, Inc., priority 2018, dated 2021)
